Bridge positions count the residues as written; N and C are the ends. Square brackets hold non-standard residues; d marks the D form. Peptide text beside a SMILES is read from it. * marks the point of attachment. Dab = NCC[C@H](N)C(=O)O; X1 = CCCCCCC(O)C(=O)*
Experiments:
HK-2 cell line = test: In vitro renal cell toxicity assay (resazurin reduction); assay type: cell-based, human
[1] = rats, 8 mg/kg BID regimen, seven days, compared to Colistin at the same dose regimen
Experimental: After one week acclimatisation, male Sprague-Dawley rats were surgically prepared with a jugular cannula and were housed individually, as required, either in pre-assigned housing cages or metabolic cages. Colistin and the Example Compounds were prepared in saline.
Compounds were introduced via the jugular cannula twice a day 7 hours apart for seven days. Each dose was increased progressively for three days up to the top dose that was then administered until termination of the study. Twenty-four hour urine collection (on ice) was performed at pre-dose and on days 4 and 7. The dose regimen is set out in Table 10 below.
The doses in the table are indicated in mg drug base/kg (free base).
The activity in urine of the N-acetyl-beta-D-glucosaminidase (NAG) was determined spectrophotometrically using the NAG assay kit from Roche Applied Science. Biomarkers of kidney injury were determined using the Kidney Injury Panel II from the Multi-Spot® Assay System (Meso Scale Discovery).

Escherichia coli [2] = test: MIC, sole activity (no second agent); assay type: cell-based
Summary of the method: (§1)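 First, isolated colonies grown 18-24 hours on Mueller-Hinton agar were suspended to 0.5 McFarland; next, up to four strains per pathogen were tested in duplicate in cation-adjusted MHB; finally, the lower concordant value or modal repeat value was reported against Polymyxin B.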

Acinetobacter baumannii [3] = test: MIC, sole activity (no second agent); assay type: cell-based
Summary of the method: as §1

Klebsiella pneumoniae [4] = test: MIC, sole activity (no second agent); assay type: cell-based
Summary of the method: as §1

Pseudomonas aeruginosa [5] = test: MIC, sole activity (no second agent); assay type: cell-based
Summary of the method: as §1

[6] = tested on: Klebsiella pneumoniae ATCC10031; conditions: 10 mg/kg/day, neutropenic mice thigh infection
Experimental: At 1 h, the CFU count was determined from 5 mice and the remaining mice (five per group) were treated with a subcutaneous injection of the drug at +1 and 6 hr post-infection.
Twenty-four hours after infection, the mice were euthanized humanely. The muscle of the right thigh of each animal was harvested, homogenized, serially diluted and plated on Brain Heart Infusion agar+0.5% charcoal (w/v) for CFU determination. Decrease of the total CFU of right thigh as compared to control counts at 24 h post-infection was determined for each dose group.

Escherichia coli [7] = test: MIC, compound in combination with a second agent (broth microdilution); assay type: cell-based
Summary of the method: (§2)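 MIC = combined concentration of test compound plus partner agent, mixed at equal mass (1:1 w/w, salt form as used). Up to four strains per species; colonies adjusted to 0.5 McFarland. Run in duplicate; >2-fold disagreement invalidates the run.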

Acinetobacter baumannii [8] = test: as above; assay type: cell-based
Summary of the method: as §2

Klebsiella pneumoniae [9] = test: as above; assay type: cell-based
Summary of the method: as §2

Pseudomonas aeruginosa [10] = test: as above; assay type: cell-based
Summary of the method: as §2

[11] = Second Agent none (Table 7B, by row order)
[12] = 1:1 combination with Ciprofloxacin, total drug concentration
[13] = 1:1 combination with Tigecycline, total drug concentration
[14] = 1:1 combination with Vancomycin, total drug concentration
[15] = 1:1 combination with Ciprofloxacin (by row order), total drug concentration

CCCCCCC(O)C(=O)N[C@H](C(=O)N[C@@H](CCN)C(=O)N[C@H]1CCNC(=O)[C@H]([C@@H](C)O)NC(=O)[C@H](CCN)NC(=O)[C@H](CCN)NC(=O)[C@H](CC(C)C)NC(=O)[C@@H](Cc2ccccc2)NC(=O)[C@H](CCN)NC1=O)[C@@H](C)O (stereo partly drawn) [Example 1, [2(R,S)-2-Hydroxyoctanoyl] polymyxin B nonapeptide] (X1-T[Dab][Dab][Dab][dF]L[Dab][Dab]T; lactam 3-C)
HK-2 toxicity (IC50) compared with PMB (HK-2 cell line): significantly increased recorded IC50 values | levels of the renal biomarkers NAG, albumin and cystatin C in urine [1]: significantly reduced levels | MIC E. coli NCTC9001 (Escherichia coli [2]; E. coli NCTC9001, second agent none): 4 micrograms/mL | MIC E. coli NCTC9001 (Escherichia coli [2]; Second Agent none (Table 7A)): 4 microgram/mL | MIC E. coli ATCC25922 (Escherichia coli [2]; Second Agent none (Table 7B)): 4 micrograms/mL | MIC E. coli CCUG 59342 (Escherichia coli [2]; Second Agent none (Table 7B)): 1 micrograms/mL | MIC E. coli NCTC9001 (Escherichia coli [2]; Second Agent none (Table 7B)): 8 micrograms/mL | MIC E. coli NCTC9001 (Escherichia coli [2]; Second Agent none (Table 7C)): 4 micrograms/mL | MIC E. coli ATCC25922 (Escherichia coli [2]; in the absence of Rifampicin, strain ATCC25922): 2 micrograms/mL | MIC E. coli NCTC9001 (Escherichia coli [2]; in the absence of Rifampicin, strain NCTC9001): 2 micrograms/mL | MIC A. baumannii NCTC 13424 (Acinetobacter baumannii [3]; [11]): 4 micrograms/mL | MIC A. baumannii ATCCBAA-747 (Acinetobacter baumannii [3]; in the absence of Rifampicin, strain ATCCBAA-747): 2 micrograms/mL | MIC A. baumannii NCTC 13423 (Acinetobacter baumannii [3]; in the absence of Rifampicin, strain NCTC13423): 1 micrograms/mL | MIC K. pneumoniae ATCC BAA-1706 (Klebsiella pneumoniae [4]; K. pneumoniae ATCC BAA-1706, second agent none): 4 micrograms/mL | MIC K. pneumoniae CCUG 59348 (Klebsiella pneumoniae [4]; K. pneumoniae CCUG 59348, second agent none): >32 micrograms/mL | MIC K. pneumoniae NCTC 13442 (Klebsiella pneumoniae [4]; K. pneumoniae NCTC 13442, second agent none): 8 micrograms/mL | MIC K. pneumoniae CCUG 59348 (Klebsiella pneumoniae [4]; Second Agent none (Table 7A)): >32 microgram/mL | MIC K. pneumoniae CCUG 59626 (Klebsiella pneumoniae [4]; Second Agent none (Table 7A)): 2 microgram/mL | MIC K. pneumoniae NCTC 13442 (Klebsiella pneumoniae [4]; Second Agent none (Table 7A)): 8 microgram/mL | MIC K. pneumoniae CCUG 59348 (Klebsiella pneumoniae [4]; Second Agent none (Table 7B)): >32 micrograms/mL | MIC K. pneumoniae NCTC 13442 (Klebsiella pneumoniae [4]; Second Agent none (Table 7B)): 8 micrograms/mL | MIC K. pneumoniae ATCC 4352 (Klebsiella pneumoniae [4]; [11]): 1 micrograms/mL | MIC K. pneumoniae ATCC BAA-1706 (Klebsiella pneumoniae [4]; [11]): 4 micrograms/mL | MIC K. pneumoniae CCUG 59348 (Klebsiella pneumoniae [4]; Second Agent none (Table 7C)): >32 micrograms/mL | MIC K. pneumoniae NCTC 13442 (Klebsiella pneumoniae [4]; Second Agent none (Table 7C)): 8 micrograms/mL | MIC K. pneumoniae ATCC 4352 (Klebsiella pneumoniae [4]; in the absence of Rifampicin, strain ATCC 4352): 1 micrograms/mL | MIC K. pneumoniae CCUG-59348 (Klebsiella pneumoniae [4]; in the absence of Rifampicin, strain CCUG-59348): >32 micrograms/mL | MIC P. aeruginosa CCUG 59626 (Pseudomonas aeruginosa [5]; P. aeruginosa CCUG 59626, second agent none): 2 micrograms/mL | MIC P. aeruginosa ATCC 27853 (Pseudomonas aeruginosa [5]; [11]): 0.5 micrograms/mL | MIC P. aeruginosa CCUG 59626 (Pseudomonas aeruginosa [5]; [11]): 2 micrograms/mL | MIC P. aeruginosa CCUG 59626 (Pseudomonas aeruginosa [5]; Second Agent none (Table 7C)): 2 micrograms/mL | MIC P. aeruginosa ATCC 27853 (Pseudomonas aeruginosa [5]; in the absence of Rifampicin, strain ATCC27853): 0.5 micrograms/mL | MIC P. aeruginosa ATCCCRM-9027 (Pseudomonas aeruginosa [5]; in the absence of Rifampicin, strain ATCCCRM-9027): 0.25 micrograms/mL | MIC P. aeruginosa CCUG 59626 (Pseudomonas aeruginosa [5]; in the absence of Rifampicin, strain CCUG 59626): 2 micrograms/mL | reduction in bacterial counts [6]: approx. 2 log10 | MIC E. coli NCTC9001 (Escherichia coli [7]; 1:1 (wt:wt) combination with Rifampicin, MIC = total drug concentration, strain NCTC9001): 0.5 micrograms/mL | MIC E. coli ATCC25922 (Escherichia coli [7]; [12]): ≤0.06 micrograms/mL | MIC E. coli CCUG 59342 (Escherichia coli [7]; [12]): 2 micrograms/mL | MIC E. coli NCTC9001 (Escherichia coli [7]; [12]): ≤0.06 micrograms/mL | MIC E. coli NCTC9001 (Escherichia coli [7]; [13]): 4 micrograms/mL | MIC E. coli NCTC9001 (Escherichia coli [7]; [14]): 4 microgram/mL | MIC E. coli NCTC9001 (Escherichia coli [7]; E. coli NCTC9001, 1:1 combination with Meropenem, total drug concentration): 0.25 micrograms/mL | MIC A. baumannii CCUG57249 (Acinetobacter baumannii [8]; 1:1 (wt:wt) combination with Rifampicin, MIC = total drug concentration, strain CCUG57249): 0.25 micrograms/mL | MIC A. baumannii NCTC 13424 (Acinetobacter baumannii [8]; 1:1 (wt:wt) combination with Rifampicin, MIC = total drug concentration, strain NCTC 13424): 0.25 micrograms/mL | MIC A. baumannii NCTC 13424 (Acinetobacter baumannii [8]; [15]): 0.5 micrograms/mL | MIC K. pneumoniae ATCC 4352 (Klebsiella pneumoniae [9]; 1:1 (wt:wt) combination with Rifampicin, MIC = total drug concentration, strain ATCC 4352): 1 micrograms/mL | MIC K. pneumoniae ATCC-BAA-2146 (Klebsiella pneumoniae [9]; 1:1 (wt:wt) combination with Rifampicin, MIC = total drug concentration, strain ATCC-BAA-2146): 2 micrograms/mL | MIC K. pneumoniae CCUG-59348 (Klebsiella pneumoniae [9]; 1:1 (wt:wt) combination with Rifampicin, MIC = total drug concentration, strain CCUG-59348): 2 micrograms/mL | MIC K. pneumoniae NCTC 13438 (Klebsiella pneumoniae [9]; 1:1 (wt:wt) combination with Rifampicin, MIC = total drug concentration, strain NCTC 13438): 1 micrograms/mL | MIC K. pneumoniae ATCC 4352 (Klebsiella pneumoniae [9]; [15]): ≤0.06 micrograms/mL | MIC K. pneumoniae ATCC BAA-1706 (Klebsiella pneumoniae [9]; [15]): 0.5 micrograms/mL | MIC K. pneumoniae CCUG 59348 (Klebsiella pneumoniae [9]; [12]): 32 micrograms/mL | MIC K. pneumoniae NCTC 13442 (Klebsiella pneumoniae [9]; [12]): 1 micrograms/mL | MIC K. pneumoniae CCUG 59348 (Klebsiella pneumoniae [9]; [13]): >32 micrograms/mL | MIC K. pneumoniae NCTC 13442 (Klebsiella pneumoniae [9]; [13]): 16 micrograms/mL | MIC K. pneumoniae CCUG 59348 (Klebsiella pneumoniae [9]; [14]): >32 microgram/mL | MIC K. pneumoniae CCUG 59626 (Klebsiella pneumoniae [9]; [14]): 2 microgram/mL | MIC K. pneumoniae NCTC 13442 (Klebsiella pneumoniae [9]; [14]): 8 microgram/mL | MIC K. pneumoniae ATCC BAA-1706 (Klebsiella pneumoniae [9]; K. pneumoniae ATCC BAA-1706, 1:1 combination with Meropenem, total drug concentration): 4 micrograms/mL | MIC K. pneumoniae CCUG 59348 (Klebsiella pneumoniae [9]; K. pneumoniae CCUG 59348, 1:1 combination with Meropenem, total drug concentration): >32 micrograms/mL | MIC K. pneumoniae NCTC 13442 (Klebsiella pneumoniae [9]; K. pneumoniae NCTC 13442, 1:1 combination with Meropenem, total drug concentration): 8 micrograms/mL | MIC P. aeruginosa ATCC 27853 (Pseudomonas aeruginosa [10]; 1:1 (wt:wt) combination with Rifampicin, MIC = total drug concentration, strain ATCC 27853): 0.5 micrograms/mL | MIC P. aeruginosa ATCC-47 (Pseudomonas aeruginosa [10]; 1:1 (wt:wt) combination with Rifampicin, MIC = total drug concentration, strain ATCC-47): 1 micrograms/mL | MIC P. aeruginosa CCUG 59626 (Pseudomonas aeruginosa [10]; 1:1 (wt:wt) combination with Rifampicin, MIC = total drug concentration, strain CCUG 59626): 1 micrograms/mL | MIC P. aeruginosa ATCC 27853 (Pseudomonas aeruginosa [10]; [15]): 0.125 micrograms/mL | MIC P. aeruginosa CCUG 59626 (Pseudomonas aeruginosa [10]; [15]): 1 micrograms/mL | MIC P. aeruginosa CCUG 59626 (Pseudomonas aeruginosa [10]; [13]): 2 micrograms/mL | MIC P. aeruginosa CCUG 59626 (Pseudomonas aeruginosa [10]; P. aeruginosa CCUG 59626, 1:1 combination with Meropenem, total drug concentration): 2 micrograms/mL

From patent US10407467B2, “Polymyxin derivatives and their use in combination therapy together with different antibiotics” (priority 2013, dated 2019)
